Where “and” joins values, the source holds several entries; their conditions need not be identical. Equal values may be shown once.
Test system: B16-BL6 murine melanoma cells
Assay: Tumorigenicity and "spontaneous" metastasis assay (s.c. footpad injection of cancer cells)
Format: in vivo, female C57BL/6 mice
Conditions: for Survival (days) (mean ± ES) / Lung metastases Frequency (%) / Lung metastases No. (mean ± ES) / Primary tumors Frequency (%) / Primary tumors Weight g (mean ± ES) / Local recurrencies Frequency (%) / Local recurrencies Weight g (mean ± ES): DOX+NAC same doses; for reduction in the number of lung metastases with respect to controls / reduction in the weight of primary tumors with respect to controls / weight of primary tumors 4 weeks after injection of cancer cells (effect in words) / reduction in the weight of local recurrencies with respect to controls: combined same doses
Method: DOX was used in the form of commercial injectable product, containing 10 mg of drug per vial (Adriblastina®, Farmitalia - Carlo Erba, Milano, Italia), to be dissolved in distilled water when injected. In the experiments wherein the oral administration was provided, NAC was used in the form of commercial product containing 200 mg of NAC per dosage (Fluimucil®, Zambon Italia, Vicenza), directly dissolved in the drinking water of mice. In the experiments wherein the parenteral (i.p. or i.v.) administration of NAC was foreseen, a 98% pure laboratory reagent (Sigma Chemical Co., St. Louis, MO, U.S.A.) was used, dissolved in a phosphate buffer (PBS), pH 7.4, and furtherly brought to neutrality with NaOH 0.1 N ("spontaneous" metastasis assays) or in NaCl 0.15 M, taking the solution to pH 7.0 (experimental metastasis assays).
A total of 385 adult mice was used (Charles River, Calco, Como, Italia) of which 196 female nude (CD-1)BR mice, aged 7 weeks, average weight of 25 g and 189 female C57BL/6 mice aged 6-8 weeks, average weight of 20 g, used in the experimental metastasis assays and in those of "spontaneous" metastases respectively. The (CD-1)BR mice were housed in sterile cages with filtering cover, in a number of 3 animals per cage, at a room temperature of 26-28°C, with a relative humidity of 55%, a ventilation accounting for 12-15 air/h renewals and a 12 hours day/night cycle; the C57BL/6 mice were stabulated in a number of 5 animals per cage, at a temperature of 25-27°C, with a relative humidity of 50% and a 12 hours day/night cycle. The (CD-1)BR mice received a special diet sterilized under vacuum (Mucedola S.r.L, Settimo Milanese, Milano, Italia) and sterilized drinking water; the C57BL/6 mice received a standard rodent diet (MIL Topi e Ratti, Morini, S. Polo d'Enza, Reggio Emilia, Italia) and drinking water ad libitum throughout the duration of the experiments. Within the experiments wherein the sacrifice of mice was foreseen at a scheduled time, killing was carried out by means of ethyl ether anaesthesia and subsequent cervical dislocation. The stabulation and all the animal treatments were carried out in accordance with the national and Community guidelines (D.L. 27.01.1992 N. 116; 86/609/EEC Directive).
In this kind of experiment, B16-BL6 murine melanoma cells were injected s.c. in the footpad of the right hind leg (5 x 10^5 cells/mouse in experiment #5, 2 x 10^5 cells/mouse in experiments #6, #7 and #8).
With such a technique a primary tumor is formed in the side of injection, from which starts the spread of metastases to the lungs.
Also in these experiments 4 groups were taken into consideration. In all the experiments NAC was administered with drinking water, at a dose of 2 g/kg body weight, starting 48-72 hours before injection of cancer cells and continuing until the end of each experiment. In experiment #5 DOX was administered by i.p. route (2 mg/kg body weight), 24 hours after injection of cancer cells. In experiments #6, #7 and #8 DOX was instead administered by i.v. route (10 mg/kg body weight), 24 hours (#6 and #7) or 7 days (#8) after injection of cancer cells.
In experiments #5, #7 and #8 mice were maintained until spontaneous death, so as to have indications also about the effect of treatment on survival. Both the primary tumors (frequency and weight) and the lung metastases (frequency and number) were therefore evaluated at the time of death.
In experiment #6 instead, 4 weeks after injection of the cancer cells, the leg carrying the primary tumor was removed. Further 4 weeks later the animals were killed, the tumors which gave recurrencies in the leg stump were excised and weighed, and the lung metastases were scored.
Four additional experiments, two of which partially overlapping (#7 and #8) were designed in order to evaluate the effects of NAC and DOX, individually or in combination, on the formation of local primary tumors and on the subsequent spread of lung metastases. […]

[1] = experiment #5, 5 x 10^5 cells/mouse, DOX 2 mg/kg i.p. +24h, NAC 2 g/kg p.o. -48 h/end
[2] = experiment #5, 5 x 10^5 cells/mouse, DOX 2 mg/kg i.p. +24h, NAC 2 g/kg p.o. -48 h/end, at spontaneous death
[3] = experiment #5, DOX 2 mg/kg i.p. +24 h, NAC 2 g/kg p.o.
[4] = experiment #6, 2 x 10^5 cells/mouse, DOX 10 mg/kg i.v. +24h, NAC 2 g/kg p.o. -48 h/56 days, leg removed 4 weeks after cells
[5] = experiment #6, 2 x 10^5 cells/mouse, DOX 10 mg/kg i.v. +24h, NAC 2 g/kg p.o. -48 h/56 days, sacrifice at 8 weeks
[6] = experiment #6, DOX 10 mg/kg +24 h, NAC 2 g/kg p.o.
[7] = experiment #6, DOX 10 mg/kg +24 h, NAC 2 g/kg p.o., 4 weeks
[8] = experiment #6, DOX 10 mg/kg +24 h, NAC 2 g/kg p.o., 8 weeks
[9] = experiment #7 (NAC group common to #7/8), DOX 10 mg/kg i.v. +24 h, NAC 2 g/kg p.o.
[10] = experiment #7, 2 x 10^5 cells/mouse, DOX 10 mg/kg i.v. +24h, NAC 2 g/kg p.o. -72 h/end
[11] = experiment #7, 2 x 10^5 cells/mouse, DOX 10 mg/kg i.v. +24h, NAC 2 g/kg p.o. -72 h/end, at spontaneous death
[12] = experiment #8, 2 x 10^5 cells/mouse, DOX 10 mg/kg i.v. +7 gg. (7 days), NAC 2 g/kg p.o. -72 h/end
[13] = experiment #8, 2 x 10^5 cells/mouse, DOX 10 mg/kg i.v. +7 gg. (7 days), NAC 2 g/kg p.o. -72 h/end, at spontaneous death

Row | Structure (SMILES) | Survival (days) (mean ± ES) [1] | Lung metastases Frequency (%) [2] | Lung metastases No. (mean ± ES) [2] | Primary tumors Frequency (%) [2] | Primary tumors Weight g (mean ± ES) [2] | weight of primary tumors (effect in words) [3] | reduction in the number of lung metastases with respect to controls [3] | reduction in the weight of primary tumors with respect to controls [3] | Primary tumors Frequency (%) [4] | Primary tumors Weight g (mean ± ES) [4] | Local recurrencies Frequency (%) [5] | Local recurrencies Weight g (mean ± ES) [5] | Lung metastases Frequency (%) [5] | Lung metastases No. (mean ± ES) [5] | weight of primary tumors 4 weeks after injection of cancer cells (effect in words) [6] | reduction in the weight of primary tumors with respect to controls [7] | reduction in the number of lung metastases with respect to controls [8] | reduction in the weight of local recurrencies with respect to controls [8] | reduction in the number of lung metastases with respect to controls [9] | Survival (days) (mean ± ES) [10] | other results
1 | CC(=O)N[C@@H](CS)C(=O)O [NAC, N-acetyl-cysteine] | 32.2 ± 2.5 days | 83.3% | 8.3 ± 6.8 No. | 100.0% | 1.9 ± 0.4 g | more than halved | 7.2 fold | 2.1 fold | 93.3% | 0.28 ± 0.04 g | 53.3% | 2.8 ± 0.8 g | 45.5% | 12.9 ± 7.8 No. | not affected | 1.0 fold | 1.6 fold | 0.9 fold | 2.1 fold | 60.1 ± 3.7 days | Lung metastases Frequency (%) [11]: 18.2%; Lung metastases No. (mean ± ES) [11]: 9.5 ± 8.3 No.; Primary tumors Frequency (%) [11]: 100.0%; Primary tumors Weight g (mean ± ES) [11]: 1.9 ± 0.6 g; Survival (days) (mean ± ES) [12]: 60.1 ± 3.7 days; Lung metastases Frequency (%) [13]: 18.2%; Lung metastases No. (mean ± ES) [13]: 9.5 ± 8.3 No.; Primary tumors Frequency (%) [13]: 100.0%; Primary tumors Weight g (mean ± ES) [13]: 1.9 ± 0.6 g; inhibition in the frequency of lung metastases with respect to controls (experiments #7/8, NAC 2 g/kg p.o.): 4.8 fold; survival of mice (effect in words) (experiments #7 and #8, NAC 2 g/kg p.o., DOX 10 mg/kg i.v. +24 h or +7 days): enhanced remarkably the survival
2 | COc1cccc2c1C(=O)c1c(O)c3c(c(O)c1C2=O)C[C@@](O)(C(=O)CO)C[C@@H]3O[C@H]1C[C@H](N)[C@H](O)[C@H](C)O1 [DOX, Doxorubicin] | 31.2 ± 4.7 days | 100.0% | 10.0 ± 6.4 No. | 100.0% | 3.0 ± 1.3 g | did not decrease to a significant extent | 6 fold and 6.0 fold | 1.3 fold | 92.3% | 0.21 ± 0.05 g | 69.2% | 2.2 ± 0.7 g | 75.0% | 32.6 ± 12.2 No. | not affected | 1.4 fold | 0.7 fold | 1.1 fold | 0.9 fold | 51.3 ± 1.9 days | Lung metastases Frequency (%) [11]: 76.9%; Lung metastases No. (mean ± ES) [11]: 23.0 ± 10.0 No.; Primary tumors Frequency (%) [11]: 100.0%; Primary tumors Weight g (mean ± ES) [11]: 2.2 ± 0.6 g; survival (effect in words) (experiment #7, DOX 10 mg/kg i.v. 24 hours after injection of cancer cells): prolonged survival; Survival (days) (mean ± ES) [12]: 49.0 ± 2.8 days; Lung metastases Frequency (%) [13]: 63.6%; Lung metastases No. (mean ± ES) [13]: 12.6 ± 9.0 No.; Primary tumors Frequency (%) [13]: 100.0%; Primary tumors Weight g (mean ± ES) [13]: 2.3 ± 0.6 g; survival curves and mean survival time (effect in words) (experiment #8, DOX 10 mg/kg i.v. 7 days after injection of cancer cells, NAC 2 g/kg p.o.): did not affect the survival curves nor the mean survival time
